Values of other authors as cited in patent publication US20140205688A1, “STIMULATING AGENT AND STIMULATING COMPOSITION” (priority 2011, published 2014).

System: humans
Conditions: humans took in / absorbed the substance

| Structure (SMILES) | amplitude of CNV |
| --- | --- |
| O=C1CN=C(c2ccccc2)c2cc([N+](=O)[O-])ccc2N1 [Nitrazepam] | declined |
| Cn1c(=O)c2c(ncn2C)n(C)c1=O [caffeine] | increased |
